Measurements reported in US8420660B2, “Antitubercular alkaloid” (priority 2011, dated 2013).

Key:
[1] = system: Mycobacterium tuberculosis H37Rv (ATCC 27294); experiment: Primary screen (dose response), Microplate Alamar Blue Assay (MABA), IC90; assay type: cell-based; settings: M. tuberculosis H37Rv, BACTEC 12B medium, Level-I assay
Description: Primary Screen (Dose Response): Determination of a 90% Inhibitory Concentration (IC90). The initial screen is conducted against Mycobacterium tuberculosis H37Rv (ATCC 27294) in BACTEC 12B medium using the Microplate Alamar Blue Assay (MABA). Compounds are tested in ten 2-fold dilutions, typically from 100 μg/mL to 0.19 μg/mL. The IC90 is defined as the concentration effecting a reduction in fluorescence of 90% relative to controls. This value is determined from the dose-response curve using a curve-fitting program. Any IC90 value of ≦10 μg/mL is considered “Active” for antitubercular activity.

VERO cell = assay type: cell-based; settings: VERO cell CC50 (72 hours exposure) / M. tuberculosis H37Rv IC90

Which results are given for “10,12-diheptanoyl-11-hydroxy-3-methyl-β-carboline [Compound I]”?
IC90 (90% inhibitory concentration), antituberculosis activity [1]: 0.948 µg/mL; Selectivity Index (SI) = CC50 divided by IC90 (VERO cell): > 105.48
